Where two headings read alike, the source gives them in different places.
Assays:
HCV = conditions: cited from earlier work
HCV reporter virus JcR2a = type: cell-based, hepatitis C virus; conditions: HCV infection system, Huh7-derived cells expressing CD81
SARS-CoV-2 [1] = experiment: microbe, parasite or virus in culture; conditions: Severe acute respiratory syndrome coronavirus 2, A549-ACE2, read-out: EC50, SARS-CoV-2
SARS-CoV-2 [2] = system: SARS-CoV-2
SARS-CoV-2 [3] = experiment: qRT-PCR-based SARS-CoV-2 replication assay in Calu-3 cells; type: cell-based
[4] = system: HA-nsp3-4-V5-induced DMVs; type: cell-based
PI4P = type: cell-based; conditions: Huh7-Lunet/T7 cells expressing HCV NS3-5B, 1 µM for 2 h
PI3P = type: cell-based
in vitro [5] = conditions: human
in vitro [6] = conditions: human; remark: listed apart in the source
in vitro [7] = conditions: human; remark: listed apart in the source

For `Cn1cnc(N)c2ncnc1-2` [3-methyladenine], the “abundance of LC3-II in HCV-infected cells” value (HCV; PI3K inhibitor, ref Su et al., 2011) is listed as “reduces”.

In the case of `Nc1ncc(-c2ccnc(Nc3ccncc3)n2)c(CC2CC2)n1` [PIK-III], the “selectivity index (ratio of EC50 and CC50)” value (HCV reporter virus JcR2a) is reported as > 10, the EC50 (SARS-CoV-2 [1]) is reported as ~170 nM and the “cell viability in HCV NS3-5B-transfected cells” value (Huh7-Lunet/T7 cells) is reported as “neither affected”. The “cell viability in SARS-CoV-2 HA-nsp3-4-V5-transfected cells” value (Huh7-Lunet/T7 cells) was “did not affect”, the “fold by which EC50 is below the CC50 value” (SARS-CoV-2 [2]; A549/ACE2 cells) was ≥ 250 fold and the EC50 (SARS-CoV-2 [2]; read-out: EC50, SARS-CoV-2) was 172 nM. The SARS-CoV-2 replication efficiency (SARS-CoV-2 [3]) was “inhibition”, the “number of HA-nsp3-4-V5-induced DMVs” value [4] was “significantly reduced” and the “elevation of PI4P (PI4P puncta)” value (PI4P) was “no effect”. For the same molecule, the “abundance of GFP-DFCP1 puncta in SARS-CoV-2-infected cells” value (PI3P) was “reduced”, the “abundance of GFP-DFCP1 puncta in starved cells” value (PI3P) was “reduced to background levels” and the “number of GFP-DFCP1 puncta in HCV-replicating cells” value (PI3P) was “diminished”.

With `CCC(CC)COC(=O)[C@H](C)N[P@](=O)(OC[C@H]1O[C@@](C#N)(c2ccc3c(N)ncnn23)[C@H](O)[C@@H]1O)Oc1ccccc1` [Remdesivir] the CC50 (in vitro [5]) was > 10 µM.

For `COC[C@H]1OC(=O)c2coc3c2[C@@]1(C)C1=C(C3=O)[C@@H]2CCC(=O)[C@@]2(C)C[C@H]1OC(C)=O` [wortmannin], the HCV replication (HCV; inhibition of PI3K activity, ref Mohl et al., 2016) is listed as “impairs”.

In the case of `COC(=O)N[C@H](C(=O)N1CCC[C@H]1c1nc(-c2ccc(-c3ccc(-c4c[nH]c([C@@H]5CCCN5C(=O)[C@@H](NC(=O)OC)C(C)C)n4)cc3)cc2)c[nH]1)C(C)C` [Daclatasvir], the CC50 (in vitro [6]) is listed as > 25 nM, the DMV formation (HCV; NS5A inhibitor, ref Berger et al., 2014) is listed as “block” and the “number of GFP-DFCP1 puncta in NS3-5B-expressing cells (NS5A wildtype)” value (PI3P) is listed as “blunted”. The “reduction of GFP-DFCP1 abundance in cells expressing NS3-5B with NS5A Y93H” value (PI3P) was “not observed” and the CC50 (in vitro [7]) was > 25 nM.
